Tests used:
eEF2K [1] = target: T1, eEF2K (Homo sapiens, UniProt O00418); assay: Western blot of p-EF2 (Thr56) for eEF2K inhibition in MDA-MB-231 cells; format: cell-based; details: for eEF2K inhibition potential: MDA-MB-231 (TNBC) cells, 2.5 to 20 micromolar
T1 sequence (O00418 1-725): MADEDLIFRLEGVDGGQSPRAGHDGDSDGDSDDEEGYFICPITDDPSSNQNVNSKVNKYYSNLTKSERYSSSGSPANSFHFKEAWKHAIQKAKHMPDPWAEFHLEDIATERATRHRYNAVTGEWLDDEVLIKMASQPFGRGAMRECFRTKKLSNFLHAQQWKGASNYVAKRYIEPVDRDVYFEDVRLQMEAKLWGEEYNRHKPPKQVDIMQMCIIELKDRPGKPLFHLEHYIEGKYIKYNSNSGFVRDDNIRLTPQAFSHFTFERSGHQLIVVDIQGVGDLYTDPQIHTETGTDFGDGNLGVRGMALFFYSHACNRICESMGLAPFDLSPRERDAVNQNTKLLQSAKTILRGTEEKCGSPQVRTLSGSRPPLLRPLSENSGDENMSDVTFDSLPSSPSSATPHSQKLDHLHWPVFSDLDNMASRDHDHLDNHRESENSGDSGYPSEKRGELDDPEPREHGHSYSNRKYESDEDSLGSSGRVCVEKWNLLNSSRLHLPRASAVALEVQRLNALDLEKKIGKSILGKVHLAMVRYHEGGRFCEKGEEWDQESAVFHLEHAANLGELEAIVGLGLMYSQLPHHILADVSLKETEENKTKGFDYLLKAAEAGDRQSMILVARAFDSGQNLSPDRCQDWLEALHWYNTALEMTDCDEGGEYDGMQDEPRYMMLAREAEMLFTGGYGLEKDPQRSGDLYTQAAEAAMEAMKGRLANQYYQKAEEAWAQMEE
Experimental: MeOH: distilled water by volume (%) (70:30) was used as the mobile phase for HPLC analysis for the inventive compound and the flow rate was set to 1 mL min^-1. Triple negative breast cancer (TNBC) cell lines (ER-, PR- and HER2-) MDA-MB-231 cells were purchased from the American Type Culture Collection (ATCC) (Manassas, VA, USA). MDA-MB-231 cells were cultured in Dulbecco's modified Eagle's medium (DMEM)/F12 supplemented with 10% FBS (Fetal Bovine Serum) and 100 U mL^-1 penicillin and streptomycin. Specific antibodies (p-EF2 (Thr56) (2331S), eEF2 (2332S), eEF2K (3692S) and GAPDH (5174S)) were purchased from Cell Signaling Technology (CST).
Western blot analysis was carried out according to previously reported studies to evaluate the eEF2K inhibition activity for the synthesized compounds. The synthesized compound was applied to MDA-MB-231 cells in the range of various concentrations from 2.5 to 20 micromolar for 2 h treatment. The expression levels of p-EF2 (Thr56) inhibition and eEF2K activity were determined by using related antibodies such as p-EF2 (Thr56), eEF2 and eEF2K. Glyceraldehyde 3-phosphate dehydrogenase (GAPDH) was used as a loading control.
To determine the effects of the synthesized compounds in inhibiting eEF2K activity in TNBC, MDA-MB-231 cells, we performed western blot analysis at concentrations ranging from 2.5 micromolar to 20 micromolar in a dose-dependent manner. eEF2K inhibition was detected by decreased phosphorylation levels of EF2 (p-EF2-Thr-56), a direct downstream substrate of the enzyme.

cancer cells = details: literature; very high doses; cited from earlier work
eEF2K [2] = target: T1, eEF2K; details: literature, cited from earlier work
other protein kinases = details: literature; cited from earlier work

Row | SMILES | eEF2K inhibition potential (eEF2K [1]; western blot) | eEF2K inhibition (in words) (eEF2K [2]) | Activity against other kinases (specificity) (other protein kinases) | further results
1 | CCc1cccc2c3c([nH]c12)C(CC)(CC(=O)O)OCC3 (racemic) [Etodolac, (R,S)-2-[1,8-diethyl-1,3,4-tetrahydropyrano[3,4-b]indol-1-yl] acetic acid] | did not show any inhibition potential |  |  | 
2 | CCn1c(=O)c2cc(C(N)=O)c(N)nc2n(C2CC2)c1=O [A484954] |  |  |  | Dose showing inhibition effect in cancer cells (cancer cells): 75 µM
3 | CCc1cccc2c3c([nH]c12)C(CC)(CC(=O)NCCN1CCCCC1)OCC3 (stereo not shown) [Inventive compound, 2-(1,8-Diethyl-1,3,4,9-tetrahydropyrano[3,4-b]indol-1-yl)-N-(2-(piperidin-1-yl)ethyl)acetamide] | high inhibition potential |  |  | phospho-eEF2 (Thr56) inhibition (eEF2K [1]; MDA-MB-231 cells, 2.5 and 5 micromolar, 2 h treatment): highest phospho-eEF2 (Thr56) inhibition; eEF2K inhibition (reduced levels of p-EF2) (eEF2K [1]; MDA-MB-231 cells, 2.5 micromolar, compared to etodolac (EC), western blot): marked inhibition of eEF2K
4 | CCCCCCCCCCCCCCCCn1cc[n+](Cc2ccccc2)c1C.[I-] [NH125] |  | does not inhibit EF2K but rather increases eEF2 phosphorylation |  | 
5 | Cc1cc(C=C2C(=O)C=CC2=O)cc(C)c1O [TX1918] |  | did not show significant eEF2K inhibition | inhibitory activity against five different kinases | Concentration reported to inhibit eEF2K (eEF2K [2]; concentrations as high as): 10 µM
6 | CC(=O)c1c(O)c(C)c(O)c(Cc2c(O)c3c(c(C(=O)/C=C/c4ccccc4)c2O)OC(C)(C)C=C3)c1O [rottlerin] |  |  | inhibits various other protein kinases at concentrations lower than those required for inhibition of eEF2K | 
